Reference: ChEMBL document CHEMBL4321797, “New Approaches to Cancer Therapy: Combining Fatty Acid Amide Hydrolase (FAAH) Inhibition with Peroxisome Proliferator-Activated Receptors (PPARs) Activation” (J Med Chem, 2019)

How the values were obtained:
[1] = biological target: T1, Fatty-acid amide hydrolase 1 (Homo sapiens, UniProt O00519); assay: Inhibition of recombinant human C-terminal FLAG-tagged FAAH expressed in HEK293T cells preincubated for 4 hrs followed by addition of FP-TAMRA probe and measured after 20 mins by SDS-PAGE based fluorescence assay; assay type: cell-based
T1 sequence (O00519 whole entry): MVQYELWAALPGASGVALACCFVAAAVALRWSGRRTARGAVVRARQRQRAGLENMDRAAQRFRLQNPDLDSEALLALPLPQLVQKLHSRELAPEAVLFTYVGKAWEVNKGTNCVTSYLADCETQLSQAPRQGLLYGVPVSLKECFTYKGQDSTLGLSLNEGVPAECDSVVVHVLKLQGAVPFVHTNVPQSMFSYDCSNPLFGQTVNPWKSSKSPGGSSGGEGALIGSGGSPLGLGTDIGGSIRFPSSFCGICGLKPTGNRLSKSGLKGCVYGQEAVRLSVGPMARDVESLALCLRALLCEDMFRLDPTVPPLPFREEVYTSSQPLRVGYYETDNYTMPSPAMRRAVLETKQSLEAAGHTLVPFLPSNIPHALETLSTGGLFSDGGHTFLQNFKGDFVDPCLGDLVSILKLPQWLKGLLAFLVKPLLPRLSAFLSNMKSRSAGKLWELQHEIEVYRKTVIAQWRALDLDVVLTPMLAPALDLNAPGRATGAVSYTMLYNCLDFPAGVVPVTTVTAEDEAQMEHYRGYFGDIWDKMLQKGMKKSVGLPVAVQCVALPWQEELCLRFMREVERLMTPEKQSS

[2] = biological target: T1, Fatty-acid amide hydrolase 1; assay: Inhibition of FAAH (unknown origin)

| SMILES | IC50 [1] [µM] | IC50 [2] [µM] |
| --- | --- | --- |
| CN(C(=O)n1cnc(-c2ccc[n+]([O-])c2)c1)C1CCCCC1 | 0.049 |  |
| CCCCC/C=C\C/C=C\C/C=C\C/C=C\CCCC(=O)NCCc1c[nH]c2ccc(O)cc12 |  | 5.6 |
